Laboratory results as given in ChEMBL document CHEMBL1201862, “PubChem BioAssay data set” (2004).
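Each compound was tested at five concentrations against cells in 96-well plates for 48 hours. GI50 is the concentration that inhibits growth by half.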 Calls of active or inactive are those of the source. Rule as the data show it: active = GI50 up to about 1.1 µM and inactive = higher.

How the values were obtained:
Test in all cases: NCI tumour cell line growth inhibition, 48 h
786-0 = tested on: 786-0
A498 = tested on: A498
A549 = tested on: A549
ACHN = tested on: ACHN
BT-549 = tested on: BT-549
CAKI-1 = tested on: CAKI-1
COLO 205 = tested on: COLO 205
DU-145 = tested on: DU-145
EKVX = tested on: EKVX
HCC 2998 = tested on: HCC 2998
HCT-116 = tested on: HCT-116
HCT-15 = tested on: HCT-15
HL-60 = tested on: HL-60
HOP-62 = tested on: HOP-62
HOP-92 = tested on: HOP-92
HT-29 = tested on: HT-29
Hs-578T = tested on: Hs-578T
IGROV-1 = tested on: IGROV-1
K562 = tested on: K562
KM12 = tested on: KM12
LOX IMVI = tested on: LOX IMVI
M14 = tested on: M14
MCF7 = tested on: MCF7
MDA-MB-231 = tested on: MDA-MB-231
MDA-MB-435 = tested on: MDA-MB-435
MDA-N = tested on: MDA-N
Malme-3M = tested on: Malme-3M
NCI-H226 = tested on: NCI-H226
NCI-H23 = tested on: NCI-H23
NCI-H460 = tested on: NCI-H460
NCI-H522 = tested on: NCI-H522
NCI/ADR-RES = tested on: NCI/ADR-RES
OVCAR-3 = tested on: OVCAR-3
OVCAR-4 = tested on: OVCAR-4
OVCAR-5 = tested on: OVCAR-5
OVCAR-8 = tested on: OVCAR-8
PC-3 = tested on: PC-3
RPMI-8226 = tested on: RPMI-8226
RXF 393 = tested on: RXF 393
SF-268 = tested on: SF-268
SF-295 = tested on: SF-295
SF-539 = tested on: SF-539
SK-MEL-28 = tested on: SK-MEL-28
SK-MEL-2 = tested on: SK-MEL-2
SK-MEL-5 = tested on: SK-MEL-5
SK-OV-3 = tested on: SK-OV-3
SN12C = tested on: SN12C
SNB-19 = tested on: SNB-19
SNB-75 = tested on: SNB-75
SR = tested on: SR
SW-620 = tested on: SW-620
TK-10 = tested on: TK-10
U-251 = tested on: U-251
UACC-257 = tested on: UACC-257
UACC-62 = tested on: UACC-62
UO-31 = tested on: UO-31
CCRF-CEM = tested on: CCRF-CEM
MOLT-4 = tested on: MOLT-4
T47D = tested on: T47D

Cc1cc(Cl)ccc1OCC(=O)Oc1c(Cl)c(Cl)c(Cl)c(Cl)c1Cl
GI50 (786-0): 29.4 µM (inactive) | GI50 (A498): 25.6 µM (inactive) | GI50 (A549): 25.6 µM (inactive) | GI50 (ACHN): 28.2 µM (inactive) | GI50 (BT-549): 35.9 µM (inactive) | GI50 (CAKI-1): 33 µM (inactive) | GI50 (COLO 205): 27.8 µM (inactive) | GI50 (DU-145): 22.4 µM (inactive) | GI50 (EKVX): 18.6 µM (inactive) | GI50 (HCC 2998): 25.2 µM (inactive) | GI50 (HCT-116): 20.8 µM (inactive) | GI50 (HCT-15): 27 µM | GI50 (HL-60): > 100 µM (inactive) | GI50 (HOP-62): 21.4 µM (inactive) | GI50 (HOP-92): 17.3 µM (inactive) | GI50 (HT-29): 26.7 µM (inactive) | GI50 (Hs-578T): 22.6 µM (inactive) | GI50 (IGROV-1): 17.4 µM (inactive) | GI50 (K562): 35.2 µM (inactive) | GI50 (KM12): 23.2 µM (inactive) | GI50 (LOX IMVI): 22.5 µM (inactive) | GI50 (M14): 26.6 µM (inactive) | GI50 (MCF7): 26.8 µM (inactive) | GI50 (MDA-MB-231): 18 µM (inactive) | GI50 (MDA-MB-435): 24.2 µM (inactive) | GI50 (MDA-N): 26.2 µM (inactive) | GI50 (Malme-3M): 19.2 µM (inactive) | GI50 (NCI-H226): 20.2 µM (inactive) | GI50 (NCI-H23): 26.4 µM (inactive) | GI50 (NCI-H460): 22.6 µM (inactive) | GI50 (NCI-H522): 17.9 µM (inactive) | GI50 (NCI/ADR-RES): 25.4 µM (inactive) | GI50 (OVCAR-3): 18.2 µM (inactive) | GI50 (OVCAR-4): 27.3 µM (inactive) | GI50 (OVCAR-5): 24.4 µM (inactive) | GI50 (OVCAR-8): 26 µM (inactive) | GI50 (PC-3): 28.2 µM (inactive) | GI50 (RPMI-8226): 21.9 µM (inactive) | GI50 (RXF 393): 18.7 µM (inactive) | GI50 (SF-268): 30.5 µM (inactive) | GI50 (SF-295): 24.1 µM (inactive) | GI50 (SF-539): 38.7 µM (inactive) | GI50 (SK-MEL-28): 27.7 µM (inactive) | GI50 (SK-MEL-2): 24.2 µM (inactive) | GI50 (SK-MEL-5): 22.9 µM (inactive) | GI50 (SK-OV-3): 27.9 µM (inactive) | GI50 (SN12C): 25.4 µM (inactive) | GI50 (SNB-19): 26.4 µM (inactive) | GI50 (SNB-75): 26.6 µM (inactive) | GI50 (SR): 17.7 µM (inactive) | GI50 (SW-620): 32.3 µM (inactive) | GI50 (TK-10): 30.3 µM (inactive) | GI50 (U-251): 24.4 µM (inactive) | GI50 (UACC-257): 19.6 µM (inactive) | GI50 (UACC-62): 19 µM (inactive) | GI50 (UO-31): 17.1 µM (inactive)

CCCC(=O)NC1CCc2cc(OC)c(OC)c(OC)c2-c2ccc(OC)c(=O)cc21 (stereo unspecified)
GI50 (786-0): 0.000652 µM (active) | GI50 (A498): 0.00807 µM (active) | GI50 (A549): 0.00538 µM (active) | GI50 (ACHN): 0.019 µM (active) | GI50 (BT-549): 0.01 µM (active) | GI50 (CCRF-CEM): 0.00028 µM (active) | GI50 (COLO 205): 0.000235 µM (active) | GI50 (DU-145): 0.00117 µM (active) | GI50 (EKVX): 0.000577 µM (active) | GI50 (HCC 2998): 0.00186 µM (active) | GI50 (HCT-116): 0.000361 µM (active) | GI50 (HCT-15): 0.00637 µM | GI50 (HL-60): 0.000321 µM (active) | GI50 (HOP-62): 0.000679 µM (active) | GI50 (HOP-92): 0.447 µM (active) | GI50 (HT-29): 0.00036 µM (active) | GI50 (Hs-578T): 0.000237 µM (active) | GI50 (IGROV-1): 0.000828 µM (active) | GI50 (K562): 0.00041 µM (active) | GI50 (KM12): 0.000449 µM (active) | GI50 (LOX IMVI): 0.00045 µM (active) | GI50 (M14): 0.000817 µM (active) | GI50 (MCF7): 0.000257 µM (active) | GI50 (MDA-MB-231): 0.0004 µM (active) | GI50 (MDA-MB-435): 0.000296 µM (active) | GI50 (MDA-N): 0.000335 µM (active) | GI50 (MOLT-4): 0.000493 µM (active) | GI50 (Malme-3M): 0.000764 µM (active) | GI50 (NCI-H226): 0.000771 µM (active) | GI50 (NCI-H23): 0.000715 µM (active) | GI50 (NCI-H460): 0.000644 µM (active) | GI50 (NCI-H522): 0.000442 µM (active) | GI50 (NCI/ADR-RES): 0.118 µM (active) | GI50 (OVCAR-3): 0.000384 µM (active) | GI50 (OVCAR-5): 0.00312 µM (active) | GI50 (OVCAR-8): 0.00252 µM (active) | GI50 (PC-3): 0.000731 µM (active) | GI50 (RPMI-8226): 0.01 µM (active) | GI50 (RXF 393): 0.01 µM (active) | GI50 (SF-268): 0.00157 µM (active) | GI50 (SF-295): 0.000512 µM (active) | GI50 (SF-539): 0.000296 µM (active) | GI50 (SK-MEL-28): 0.01 µM (active) | GI50 (SK-MEL-2): 0.01 µM (active) | GI50 (SK-MEL-5): 0.000356 µM (active) | GI50 (SK-OV-3): 0.00454 µM (active) | GI50 (SN12C): 0.000782 µM (active) | GI50 (SNB-19): 0.000519 µM (active) | GI50 (SNB-75): 1.82 µM (inactive) | GI50 (SR): 0.114 µM (active) | GI50 (SW-620): 0.000481 µM (active) | GI50 (TK-10): 78.5 µM (inactive) | GI50 (U-251): 0.000344 µM (active) | GI50 (UACC-62): 0.000303 µM (active) | GI50 (UO-31): 0.0813 µM (active)

CCOC(=O)C(O)(NC(=O)Nc1ccc(F)cc1)C(F)(F)F (stereo unspecified)
GI50 (786-0): > 100 µM (inactive) | GI50 (A498): > 100 µM (inactive) | GI50 (A549): > 100 µM (inactive) | GI50 (ACHN): > 100 µM (inactive) | GI50 (BT-549): > 100 µM (inactive) | GI50 (CAKI-1): 38.8 µM (inactive) | GI50 (CCRF-CEM): > 100 µM (inactive) | GI50 (COLO 205): > 100 µM (inactive) | GI50 (EKVX): > 100 µM (inactive) | GI50 (HCC 2998): > 100 µM (inactive) | GI50 (HCT-116): > 100 µM (inactive) | GI50 (HCT-15): > 100 µM | GI50 (HL-60): > 100 µM (inactive) | GI50 (HT-29): > 100 µM (inactive) | GI50 (Hs-578T): > 100 µM (inactive) | GI50 (IGROV-1): > 100 µM (inactive) | GI50 (K562): > 100 µM (inactive) | GI50 (LOX IMVI): > 100 µM (inactive) | GI50 (M14): > 100 µM (inactive) | GI50 (MDA-MB-435): > 100 µM (inactive) | GI50 (MDA-N): > 100 µM (inactive) | GI50 (MOLT-4): > 100 µM (inactive) | GI50 (NCI-H23): > 100 µM (inactive) | GI50 (NCI/ADR-RES): > 100 µM (inactive) | GI50 (OVCAR-5): > 100 µM (inactive) | GI50 (OVCAR-8): > 100 µM (inactive) | GI50 (PC-3): > 100 µM (inactive) | GI50 (RPMI-8226): > 100 µM (inactive) | GI50 (RXF 393): > 100 µM (inactive) | GI50 (SF-268): > 100 µM (inactive) | GI50 (SF-539): > 100 µM (inactive) | GI50 (SK-MEL-28): > 100 µM (inactive) | GI50 (SK-MEL-2): > 100 µM (inactive) | GI50 (SK-MEL-5): > 100 µM (inactive) | GI50 (SK-OV-3): > 100 µM (inactive) | GI50 (SN12C): > 100 µM (inactive) | GI50 (SNB-19): > 100 µM (inactive) | GI50 (SNB-75): > 100 µM (inactive) | GI50 (SR): > 100 µM (inactive) | GI50 (SW-620): > 100 µM (inactive) | GI50 (T47D): > 100 µM (inactive) | GI50 (TK-10): > 100 µM (inactive) | GI50 (U-251): > 100 µM (inactive) | GI50 (UACC-257): > 100 µM (inactive) | GI50 (UO-31): > 100 µM (inactive)
